Measurements published in patent publication US20230202995A1, “HIGH EFFICIENT SEX PHEROMONE LURES FOR ECTROPIS OBLIQUE AND ECTROPIS GRISESCENS” (CHANGZHOU UNIVERSITY, priority 2021, published 2023).

The compounds below were run on E. oblique (assay: Field trapping test with sex pheromone lures in traps, tea plantation). Details: lures with (3Z,6Z,9Z)-octadecatriene.
Format: in vivo, Ectropis oblique
Method: Embodiment 9: Field trapping tests were carried out at a tea plantation of Jintan Xinpin Tea Industry Co., Ltd., Changzhou City, Jiangsu Province. Sex pheromone lures used in the tests were made according to the schemes described in Embodiments 3-8, and a blank control was a lure made of n-hexane. The sex pheromone lure was used with a trap, each treatment process was repeated 3 times, and the number of trapped male pests in one month was counted.
(§1) Embodiment 50: Field trapping tests were carried out at the tea plantation of Jintan Xinpin Tea Industry Co., Ltd., Changzhou City, Jiangsu Province. Sex pheromone lures used in the test were made according to the schemes described in Embodiments 10-49, and a blank control was the lures made of n-hexane. The sex pheromone lures were used with a trap, each treatment process was repeated for 3 times, and the number of trapped insects in one month was counted.
as §1, with “53:” for “50:”, “51-52,” for “10-49,”, “in Embodiment 12.” for “of n-hexane.”, “lure was” for “lures were”, “repeated” for “repeated for”
as §1, with “54:” for “50:”, “Embodiment 12.” for “Embodiments 10-49, and a blank control was the lures made of n-hexane.”, “lure was” for “lures were”

`CC/C=C\C[C@@H]1O[C@@H]1C/C=C\CCCCCCCC` [(3Z,9Z,6S,7R)-6,7-epoxy-octadecadiene] was tested. Which “Trapping effect on E. oblique (in words)” value did it give?
Its value is “certain trapping capacity”.

Which “Trapping effect on E. oblique (in words)” value does the source give for `CCCCCCCC/C=C\C/C=C\C[C@@H]1O[C@@H]1CC` [(6Z,9Z,3R,4S)-3,4-epoxy-octadecadiene] here?
Its value is “no trapping effect at all”.

`CC/C=C\C[C@H]1O[C@H]1C/C=C\CCCCCCCC` [(3Z,9Z,6R,7S)-6,7-epoxy-octadecadiene] was tested. Which “Trapping effect on E. oblique (in words)” value did it give?
Its value is “certain trapping capacity”.

For `CCCCCCCC/C=C\C/C=C\C[C@H]1O[C@H]1CC` [(6Z,9Z,3S,4R)-3,4-epoxy-octadecadiene], which “Trapping effect on E. oblique (in words)” value is on record?
Its value is “no trapping effect at all”.

For `CC/C=C\C/C=C\C[C@@H]1O[C@@H]1CCCCCCCC` [(3Z,6Z,9S,10R)-9,10-epoxy-octadecadiene], which “Trapping effect on E. oblique (in words)” value is on record?
The value was “no trapping effect at all”.

How did the “Trapping effect on E. oblique (in words)” value turn out when `CC/C=C\C/C=C\C[C@H]1O[C@H]1CCCCCCCC` [(3Z,6Z,9R,10S)-9,10-epoxy-octadecadiene] was run?
The value was “no trapping effect at all”.
